Where two headings read alike, the source gives them in different places.
Key:
[1] = biological target: T1, FLuc-C-HiBiT (firefly luciferase) (Photinus pyralis, UniProt P08659, form not given/L550V); test: Firefly luciferase (FLuc) enzymatic luminescence assay, FLuc-C-HiBiT; type: biochemical; settings: for 10 nM FLuc-C-HiBiT Enz, Mean: Log [PTC124]
Summary of the method: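 Compounds were preincubated 30–60 min at room temperature in the dark with 1–10 nM fusion enzyme in PBS pH 7.4. D-luciferin was then added (10 µM final) for 5 min before luminescence was imaged. Inhibition was normalized to no-enzyme control (100%) and DMSO neutral control.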

[2] = biological target: T2, NLuc (Oplophorus gracilirostris, UniProt Q9GV45, A31E/A60N/A81I/F95D/I117V/K70R/L54V/L99Q/M102K/N193R/P142E/Q151K/Q38R/Q45L/V71I/Y165I); type: biochemical; settings: 32.8 µM ligand; for SDR assay statistics Ave RLU / SDR assay statistics S:B / SDR assay statistics S:N / SDR assay statistics Z’: Standard functional and SDR assays are the same
T2 construct: His tag (inferred from IMAC purification); made in house; host or cells: E. coli
Summary of the method: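 Test compounds added to 1 nM NLuc in PBS with 0.05% IGEPAL, ± ATP. Nano-Glo reagent added and incubated 10 min before luminescence read.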

[3] = biological target: T1, FLuc-C-HiBiT (firefly luciferase); test: SDR assay, FLuc-C-HiBiT; settings: for SDR assay statistics Ave RLU / SDR assay statistics S:B / SDR assay statistics S:N / SDR assay statistics Z’: 32.8 µM ligand; for 10 nM FLuc-C-HiBiT + 10 mM ATP, Mean / 10 nM FLuc-C-HiBiT No ATP, Mean: Log [PTC124]
[4] = FLuc-C-HiBiT (10 nM) + 10 mM ATP, 32.8 µM ligand
[5] = FLuc-C-HiBiT (10 nM) + 10 mM ATP

T2 sequence (Q9GV45 other isoform, or with tags, fused parts or gaps with the stated changes): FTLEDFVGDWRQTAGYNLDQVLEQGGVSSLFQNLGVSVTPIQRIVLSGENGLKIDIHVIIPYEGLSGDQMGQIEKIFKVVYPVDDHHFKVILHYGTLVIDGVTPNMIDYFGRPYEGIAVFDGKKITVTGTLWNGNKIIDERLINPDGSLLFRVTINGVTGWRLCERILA
T1 sequence (P08659 2-550 L550V, form open): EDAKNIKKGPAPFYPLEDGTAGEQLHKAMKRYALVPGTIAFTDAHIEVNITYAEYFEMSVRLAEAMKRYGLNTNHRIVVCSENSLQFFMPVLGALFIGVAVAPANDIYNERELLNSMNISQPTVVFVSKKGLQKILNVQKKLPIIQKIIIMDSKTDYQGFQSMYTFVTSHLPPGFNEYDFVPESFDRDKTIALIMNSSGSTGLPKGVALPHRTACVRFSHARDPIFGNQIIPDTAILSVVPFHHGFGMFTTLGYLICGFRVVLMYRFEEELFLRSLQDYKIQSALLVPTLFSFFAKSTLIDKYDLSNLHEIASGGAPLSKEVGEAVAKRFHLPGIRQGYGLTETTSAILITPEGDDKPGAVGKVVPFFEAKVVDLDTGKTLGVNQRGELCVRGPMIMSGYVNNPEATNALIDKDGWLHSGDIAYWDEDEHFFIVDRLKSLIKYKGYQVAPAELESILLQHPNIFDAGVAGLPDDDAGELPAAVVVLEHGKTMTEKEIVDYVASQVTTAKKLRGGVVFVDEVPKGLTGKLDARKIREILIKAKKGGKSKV

## O=C(O)c1cccc(-c2noc(-c3ccccc3F)n2)c1 [PTC124, reference compound]
[1]; 10 μM ATP
  pIC50, FLuc-C-HiBiT (10 nM): 7.95 ± 0.02
[1]; [4]
  Standard assay statistics Ave RLU: 48.5 RLU
  Standard assay statistics S:B: 0.0352
  Standard assay statistics S:N: -14.1
  Standard assay statistics Z’: 0.761
[1]; M (Enz) -4.24
  10 nM FLuc-C-HiBiT Enz, Mean: 3.7 RLU
[1]; M (Enz) -4.72
  10 nM FLuc-C-HiBiT Enz, Mean: 3.6 RLU
[1]; M (Enz) -5.19
  10 nM FLuc-C-HiBiT Enz, Mean: 3.8 RLU
[1]; M (Enz) -5.67
  10 nM FLuc-C-HiBiT Enz, Mean: 4.4 RLU
[1]; M (Enz) -6.15
  10 nM FLuc-C-HiBiT Enz, Mean: 4.9 RLU
[1]; M (Enz) -6.63
  10 nM FLuc-C-HiBiT Enz, Mean: 6.7 RLU
[1]; M (Enz) -7.10
  10 nM FLuc-C-HiBiT Enz, Mean: 13.5 RLU
[1]; M (Enz) -7.58
  10 nM FLuc-C-HiBiT Enz, Mean: 42.4 RLU
[1]; M (Enz) -8.06
  10 nM FLuc-C-HiBiT Enz, Mean: 126.0 RLU
[1]; M (Enz) -8.53
  10 nM FLuc-C-HiBiT Enz, Mean: 177.8 RLU
[1]; M (Enz) -9.01
  10 nM FLuc-C-HiBiT Enz, Mean: 195.6 RLU
[1]; M (Enz) -9.49
  10 nM FLuc-C-HiBiT Enz, Mean: 204.3 RLU
[1]; M (Enz) -9.97
  10 nM FLuc-C-HiBiT Enz, Mean: 206.3 RLU
[1]; M (Enz) -10.44
  10 nM FLuc-C-HiBiT Enz, Mean: 203.9 RLU
[1]; M (Enz) -10.92
  10 nM FLuc-C-HiBiT Enz, Mean: 205.8 RLU
[1]; M (Enz) -11.40
  10 nM FLuc-C-HiBiT Enz, Mean: 202.8 RLU
[2]; NLuc (1 nM) + 10 mM ATP
  Standard assay statistics Ave RLU: 17397.2 RLU
  Standard assay statistics S:B: 1.0
  Standard assay statistics S:N: 0.0
  Standard assay statistics Z’: -163.485
  SDR assay statistics Ave RLU: 17397.2 RLU
  SDR assay statistics S:B: 1.0
  SDR assay statistics S:N: 0.0
  SDR assay statistics Z’: -163.485
[2]; NLuc (1 nM) No ATP
  Standard assay statistics Ave RLU: 20065.5 RLU
  Standard assay statistics S:B: 1.0
  Standard assay statistics S:N: 0.0
  Standard assay statistics Z’: -167.215
  SDR assay statistics Ave RLU: 20065.5 RLU
  SDR assay statistics S:B: 1.0
  SDR assay statistics S:N: 0.0
  SDR assay statistics Z’: -167.215
[3]; 0 μM ATP
  pSDR50, FLuc-C-HiBiT (10 nM): 5.73 ± 0.13
[3]; 10 μM ATP
  pSDR50, FLuc-C-HiBiT (10 nM): 8.30 ± 0.07
[3]; [5]
  SDR assay statistics Ave RLU: 11178.8 RLU
  SDR assay statistics S:B: 6.5
  SDR assay statistics S:N: 12.2
  SDR assay statistics Z’: 0.693
[3]; FLuc-C-HiBiT (10 nM) No ATP
  SDR assay statistics Ave RLU: 6229.4 RLU
  SDR assay statistics S:B: 5.1
  SDR assay statistics S:N: 7.5
  SDR assay statistics Z’: 0.503
[3]; M (SDR) -4.48
  10 nM FLuc-C-HiBiT + 10 mM ATP, Mean: 21802.2 RLU
  10 nM FLuc-C-HiBiT No ATP, Mean: 17458.7 RLU
[3]; M (SDR) -4.96
  10 nM FLuc-C-HiBiT + 10 mM ATP, Mean: 22284.7 RLU
  10 nM FLuc-C-HiBiT No ATP, Mean: 16769.9 RLU
[3]; M (SDR) -5.44
  10 nM FLuc-C-HiBiT + 10 mM ATP, Mean: 22342.5 RLU
  10 nM FLuc-C-HiBiT No ATP, Mean: 16051.7 RLU
[3]; M (SDR) -5.91
  10 nM FLuc-C-HiBiT + 10 mM ATP, Mean: 22563.9 RLU
  10 nM FLuc-C-HiBiT No ATP, Mean: 15076.6 RLU
[3]; M (SDR) -6.39
  10 nM FLuc-C-HiBiT + 10 mM ATP, Mean: 22424.3 RLU
  10 nM FLuc-C-HiBiT No ATP, Mean: 13877.2 RLU
[3]; M (SDR) -6.87
  10 nM FLuc-C-HiBiT + 10 mM ATP, Mean: 22543.4 RLU
  10 nM FLuc-C-HiBiT No ATP, Mean: 13237.3 RLU
[3]; M (SDR) -7.35
  10 nM FLuc-C-HiBiT + 10 mM ATP, Mean: 21860.7 RLU
  10 nM FLuc-C-HiBiT No ATP, Mean: 13241.3 RLU
[3]; M (SDR) -7.82
  10 nM FLuc-C-HiBiT + 10 mM ATP, Mean: 20621.1 RLU
  10 nM FLuc-C-HiBiT No ATP, Mean: 13270.4 RLU
[3]; M (SDR) -8.30
  10 nM FLuc-C-HiBiT + 10 mM ATP, Mean: 18655.3 RLU
  10 nM FLuc-C-HiBiT No ATP, Mean: 13170.2 RLU
[3]; M (SDR) -8.78
  10 nM FLuc-C-HiBiT + 10 mM ATP, Mean: 16941.8 RLU
  10 nM FLuc-C-HiBiT No ATP, Mean: 13237.7 RLU
[3]; M (SDR) -9.25
  10 nM FLuc-C-HiBiT + 10 mM ATP, Mean: 15920.6 RLU
  10 nM FLuc-C-HiBiT No ATP, Mean: 13300.5 RLU
[3]; M (SDR) -9.73
  10 nM FLuc-C-HiBiT + 10 mM ATP, Mean: 15410.2 RLU
  10 nM FLuc-C-HiBiT No ATP, Mean: 13254.2 RLU
[3]; M (SDR) -10.21
  10 nM FLuc-C-HiBiT + 10 mM ATP, Mean: 15302.7 RLU
  10 nM FLuc-C-HiBiT No ATP, Mean: 12964.2 RLU
[3]; M (SDR) -10.69
  10 nM FLuc-C-HiBiT + 10 mM ATP, Mean: 15229.5 RLU
  10 nM FLuc-C-HiBiT No ATP, Mean: 13111.1 RLU
[3]; M (SDR) -11.16
  10 nM FLuc-C-HiBiT + 10 mM ATP, Mean: 15146.3 RLU
  10 nM FLuc-C-HiBiT No ATP, Mean: 13296.1 RLU
[3]; M (SDR) -11.64
  10 nM FLuc-C-HiBiT + 10 mM ATP, Mean: 14993.9 RLU
  10 nM FLuc-C-HiBiT No ATP, Mean: 13163.6 RLU

Source: article PMC12064818, “A general assay platform to study protein pharmacology using ligand-dependent structural dynamics” (Nature Communications, 2025)
